Several values for one entry are separate records, joined by “and”; a condition that tells them apart may be missing. Equal values may be shown once. Read-outs that look alike come from different tables or passages of the source. Values belong to the molecule of their own block, whether it stands above or below them. Where a SMILES comes first, the peptide text is derived from it. [ ]: non-standard residue; d: D form. The star is where a group is joined. Phe(4-tBu) = CC(C)(C)c1ccc(C[C@H](N)C(=O)O)cc1; Bpa = N[C@@H](Cc1ccc(C(=O)c2ccccc2)cc1)C(=O)O; Benzoyl(4-OMe) = COc1ccc(C(=O)*)cc1
Target: T1, APC (303–739) (Homo sapiens, UniProt P25054)
T1 sequence (P25054 303-739): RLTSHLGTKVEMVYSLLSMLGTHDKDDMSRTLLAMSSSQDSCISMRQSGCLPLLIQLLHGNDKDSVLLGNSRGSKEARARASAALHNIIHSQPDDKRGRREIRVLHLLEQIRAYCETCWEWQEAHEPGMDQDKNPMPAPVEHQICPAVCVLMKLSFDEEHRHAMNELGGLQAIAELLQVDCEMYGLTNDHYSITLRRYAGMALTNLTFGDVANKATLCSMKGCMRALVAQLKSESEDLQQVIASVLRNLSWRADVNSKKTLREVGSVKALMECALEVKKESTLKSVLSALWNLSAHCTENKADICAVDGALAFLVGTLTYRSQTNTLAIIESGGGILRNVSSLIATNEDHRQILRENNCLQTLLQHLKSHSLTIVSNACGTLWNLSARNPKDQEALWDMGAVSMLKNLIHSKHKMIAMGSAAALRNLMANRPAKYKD
Assay: FP competitive assay using tracer 7
Type: binding
Method: FITC-labeled tracer peptides were obtained from Changzhou Kanglong Biotech Ltd. (Changzhou, Jiangsu, China). […]. The FP signal changes upon tracer binding were measured after 1.5 h of incubation using a Synergy neo microplate reader (BioTek Instruments, Inc.) and plotted against the protein concentration. The corresponding EC50 values were generated by fitting the curves with a nonlinear regression model. […]. To make a working solution, APC (303–739) was diluted in FP buffer (50 mM HEPES, pH 7.5, 300 mM NaCl, 1 mM EDTA, 1 mM DTT). The diluted APC protein (91 μL) was combined with a serial dilution of peptides (4 μL) and incubated at room temperature for 1 h, followed by the addition of 5 μL of 400 nM tracer 7. The FP signals were measured after 1.5 h of incubation at room temperature using a Synergy neo microplate reader. Three controls were included on each plate, i.e., blank (without protein and tracer), 100% inhibition (free tracer only), and 0% inhibition (protein/tracer complex only) controls. All experiments were performed in triplicate. The IC50 values of peptides were calculated by nonlinear regression analysis using GraphPad Prism 7.0 software.

[1] = Conc. 0.0049 μM, individual repeats, Fig3b
[2] = Conc. 0.0098 μM, individual repeats, Fig3b
[3] = Conc. 0.0195 μM, individual repeats, Fig3b
[4] = Conc. 0.0391 μM, individual repeats, Fig3b
[5] = Conc. 0.0781 μM, individual repeats, Fig3b
[6] = Conc. 0.1563 μM, individual repeats, Fig3b
[7] = Conc. 0.3125 μM, individual repeats, Fig3b
[8] = Conc. 0.625 μM, individual repeats, Fig3b
[9] = Conc. 2.5 μM, individual repeats, Fig3b
[10] = Conc. 5 μM, individual repeats, Fig3b
[11] = Conc. 10 μM, individual repeats, Fig3b
[12] = Conc. 20 μM, individual repeats, Fig3b

SMILES: COc1ccc(C(=O)N[C@@H](C)C(=O)NCC(=O)N[C@@H](CCC(=O)O)C(=O)N[C@@H](CO)C(=O)N[C@@H](CC(C)C)C(=O)N[C@@H](Cc2ccc(O)cc2)C(=O)N[C@@H](Cc2ccc(C(=O)c3ccccc3)cc2)C(N)=O)cc1 [MAI-521] ({Benzoyl(4-OMe)}-AGESLY[Bpa]-NH2)
- inhibition at 0.0015 µM (Conc. 0.0015 μM, individual repeats, Fig3b): 1.5%
- %inhibition (Conc. 0.0024 μM, individual repeats, Fig3b): -0.4% and 2.8%
- inhibition at 0.0031 µM (Conc. 0.0031 μM, individual repeats, Fig3b): 2%
- %inhibition [1]: 2.6%
- inhibition at 0.0049 µM [1]: 1.8%
- inhibition at 0.006 µM (Conc. 0.006 μM, individual repeats, Fig3b): 3.2%
- %inhibition [2]: 10.8%
- inhibition at 0.0098 µM [2]: 6.3%
- inhibition at 0.012 µM (Conc. 0.012 μM, individual repeats, Fig3b): 9%
- %inhibition [3]: 24.3%
- inhibition at 0.0195 µM [3]: 16%
- inhibition at 0.024 µM (Conc. 0.024 μM, individual repeats, Fig3b): 22.1%
- %inhibition [4]: 41%
- inhibition at 0.0391 µM [4]: 35.5%
- inhibition at 0.049 µM (Conc. 0.049 μM, individual repeats, Fig3b): 39.2%
- %inhibition [5]: 60.9%
- inhibition at 0.0781 µM [5]: 56.4%
- inhibition at 0.098 µM (Conc. 0.098 μM, individual repeats, Fig3b): 74.8%
- %inhibition [6]: 75%
- inhibition at 0.1563 µM [6]: 74.4%
- inhibition at 0.195 µM (Conc. 0.195 μM, individual repeats, Fig3b): 77.9%
- %inhibition [7]: 86.3%
- inhibition at 0.3125 µM [7]: 86%
- inhibition at 0.391 µM (Conc. 0.391 μM, individual repeats, Fig3b): 87.6%
- %inhibition [8]: 93.8%
- inhibition at 0.625 µM [8]: 92%
- inhibition at 0.781 µM (Conc. 0.781 μM, individual repeats, Fig3b): 92.8%
- inhibition at 1.25 µM (Conc. 1.25 μM, individual repeats, Fig3b): 95.3%
- inhibition at 1.563 µM (Conc. 1.563 μM, individual repeats, Fig3b): 95.7%
- %inhibition [9]: 98.9%
- inhibition at 2.5 µM [9]: 96.1%
- inhibition at 3.125 µM (Conc. 3.125 μM, individual repeats, Fig3b): 97.1%
- %inhibition [10]: 100.8%
- inhibition at 5 µM [10]: 96.6%
- inhibition at 6.25 µM (Conc. 6.25 μM, individual repeats, Fig3b): 98.3%
- %inhibition [11]: 101.1%
- inhibition at 10 µM [11]: 97.4%
- inhibition at 12.5 µM (Conc. 12.5 μM, individual repeats, Fig3b): 97.7%
- %inhibition [12]: 101.7%
- inhibition at 20 µM [12]: 97%
- IC50 (IC50 Repeat 1, tracer 7): 53.6 nM
- IC50 (IC50 Repeat 2, tracer 7): 54 nM
- IC50 (IC50 Repeat 3, tracer 7): 51.6 nM
- IC50 (IC50 mean, tracer 7, mean of three repeats): 53.1 nM
- mean (FP signal, FigS5) (Repeat 1, Conc. 0.0015 μM): 296.3
- mean (FP signal, FigS5) (Repeat 1, Conc. 0.0031 μM): 295
- mean (FP signal, FigS5) (Repeat 1, Conc. 0.006 μM): 292
- mean (FP signal, FigS5) (Repeat 1, Conc. 0.012 μM): 277.7
- mean (FP signal, FigS5) (Repeat 1, Conc. 0.024 μM): 245
- mean (FP signal, FigS5) (Repeat 1, Conc. 0.049 μM): 202.3
- mean (FP signal, FigS5) (Repeat 1, Conc. 0.098 μM): 113.7
- mean (FP signal, FigS5) (Repeat 1, Conc. 0.195 μM): 106
- mean (FP signal, FigS5) (Repeat 1, Conc. 0.391 μM): 82
- mean (FP signal, FigS5) (Repeat 1, Conc. 0.781 μM): 69
- mean (FP signal, FigS5) (Repeat 1, Conc. 1.563 μM): 61.7
- mean (FP signal, FigS5) (Repeat 1, Conc. 3.125 μM): 58.3
- mean (FP signal, FigS5) (Repeat 1, Conc. 6.25 μM): 55.3
- mean (FP signal, FigS5) (Repeat 1, Conc. 12.5 μM): 56.7
- mean (FP signal, FigS5) (Repeat 2, Conc. 0.0024 μM): 282.7
- mean (FP signal, FigS5) (Repeat 2, Conc. 0.0049 μM): 277.5
- mean (FP signal, FigS5) (Repeat 2, Conc. 0.0098 μM): 267
- mean (FP signal, FigS5) (Repeat 2, Conc. 0.0195 μM): 244.3
- mean (FP signal, FigS5) (Repeat 2, Conc. 0.0391 μM): 199
- mean (FP signal, FigS5) (Repeat 2, Conc. 0.0781 μM): 150.3
- mean (FP signal, FigS5) (Repeat 2, Conc. 0.1563 μM): 108.7
- mean (FP signal, FigS5) (Repeat 2, Conc. 0.3125 μM): 81.7
- mean (FP signal, FigS5) (Repeat 2, Conc. 0.625 μM): 67.7
- mean (FP signal, FigS5) (Repeat 2, Conc. 1.25 μM): 60
- mean (FP signal, FigS5) (Repeat 2, Conc. 2.5 μM): 58
- mean (FP signal, FigS5) (Repeat 2, Conc. 5 μM): 57
- mean (FP signal, FigS5) (Repeat 2, Conc. 10 μM): 55
- mean (FP signal, FigS5) (Repeat 2, Conc. 20 μM): 56
- mean (FP signal, FigS5) (Repeat 3, Conc. 0.0024 μM): 286
- mean (FP signal, FigS5) (Repeat 3, Conc. 0.0049 μM): 286.5
- mean (FP signal, FigS5) (Repeat 3, Conc. 0.0098 μM): 266.5
- mean (FP signal, FigS5) (Repeat 3, Conc. 0.0195 μM): 234
- mean (FP signal, FigS5) (Repeat 3, Conc. 0.0391 μM): 193.7
- mean (FP signal, FigS5) (Repeat 3, Conc. 0.0781 μM): 145.7
- mean (FP signal, FigS5) (Repeat 3, Conc. 0.1563 μM): 111.7
- mean (FP signal, FigS5) (Repeat 3, Conc. 0.3125 μM): 84.3
- mean (FP signal, FigS5) (Repeat 3, Conc. 0.625 μM): 66.3
- mean (FP signal, FigS5) (Repeat 3, Conc. 1.25 μM): 58.7
- mean (FP signal, FigS5) (Repeat 3, Conc. 2.5 μM): 54
- mean (FP signal, FigS5) (Repeat 3, Conc. 5 μM): 49.3
- mean (FP signal, FigS5) (Repeat 3, Conc. 10 μM): 48.7
- mean (FP signal, FigS5) (Repeat 3, Conc. 20 μM): 47.3

- IC50 (tracer 7, mean of three repeats, read-out: IC50 mean): 147 nM
- IC50 (tracer 7, read-out: IC50 Repeat 1): 166 nM
- IC50 (tracer 7, read-out: IC50 Repeat 2): 144 nM
- IC50 (tracer 7, read-out: IC50 Repeat 3): 131 nM
SMILES: COc1ccc(C(=O)N[C@@H](C)C(=O)NCC(=O)N[C@@H](CCC(=O)O)C(=O)N[C@@H](CO)C(=O)N[C@@H](CC(C)C)C(=O)N[C@@H](Cc2ccc(O)cc2)C(=O)N[C@@H](Cc2ccc(C(C)(C)C)cc2)C(N)=O)cc1 [MAI-522] ({Benzoyl(4-OMe)}-AGESLY[Phe(4-tBu)]-NH2)
